Experiments:
[1] = system: transgenic mice (Line 61) overexpressing wildtype human alpha-synuclein; assay: In vivo treatment efficacy on Parkinson disease (PD) model (Line 61); conditions: Line 61 mice, daily oral gavage for 24 weeks
Excerpt: The transgenic mice (Line 61) which overexpresses wildtype human alpha-synuclein protein (hAsyn) under the regulatory control of the murine Thy-1 promoter is a widely used Parkinson disease (PD) animal model. […] In addition, motor deficits such as lack of coordination, diminution of strength, and unbalance are also observed from 2 to 4 months of age (Fleming et al. 2004, J Neurosci 24 (42): 9434-40). Treatment effect of compound of formula (I) is based on the assessment of the behaviour (motoric performance), as well as the quantification of aggregated hAsyn and pser129-Asyn deposits by histology and by the biochemical determination of aggregated hAsyn present in the brain “insoluble fraction” of treated animals.
For this, transgenic Line 61 mice (4 weeks of age) and age/sex-matched non-transgenic littermates are first tested in the Irwin testing battery test, rotarod, wire suspension, beam walk and pasta gnawing test at baseline. […] Right hemibrains are embedded in OCT medium and 10 μm cryosections are collected to quantify the level of hAsyn and pser129-Asyn deposits by immunohistochemistry in the hippocampus and in the cortex of treated animals. […]

[2] = system: patients with probable PSP Richardson's syndrome; assay: Phase 2 clinical trial, dose extension (Example 7); type: in vivo, human; conditions: 300 mg, 150 mg or 75 mg TID PO
Experimental: The study design of this Example 7 is analogous to the study described in Example 6, a randomized, multi-centre, double-blind, placebo-controlled trial to study the safety and tolerability of compound (I) in patients with probable PSP Richardson's syndrome. Approximately 40 patients (40 to 85 years of age, inclusive) are randomized in a 2:1:1:1 ratio to 300 mg or 150 mg or 75 mg or placebo TID PO, with or without food.

[3] = system: kainate-induced seizure rat model; conditions: rats, daily oral gavage for 3 consecutive days
Experimental: Compound of formula (I) is evaluated in the kainate-induced seizure rat model. Sprague-Dawley rats are treated with intraperitoneal injection of kainate (10 mg/kg) to induce seizure or with saline as vehicle control. […] The onset of status epilepticus (SE) is defined as the time from kainate injection to the occurrence of continuous seizure activity (Racine score 4-5) over a period of 4 h. Four weeks following the administration of kainate, animals undergo EEG surgery for electrodes implantation at the surface of the dura mater. […] Then, the animals receive a daily administration (oral gavage) of compound formula (I) for 3 consecutive days during which, cerebral activity is monitored by EEG recording. Animals are finally sacrificed ninety-six hours (4 days) post-baseline.

[4] = system: acute glaucoma-induced I/R injury; assay: In vivo treatment efficacy on acute glaucoma induced ischemia-reperfusion (I/R) model; design: species or system Sprague-Dawley (SD) rats; conditions: SD rats, oral, 7 days after I/R injury
Experimental: The efficacy of compound of formula (I) is evaluated in the acute glaucoma animal model. Eight-week-old male Sprague-Dawley (SD) rats weighing 250 to 300 g are housed in a temperature- and humidity-controlled animal room under a 12-hour light/12-hour dark cycle, with food and water provided ad libitum. Before any experiment, animals are allowed for one week of acclimatization. The SD rats are randomly allocated to control group and/or treatment groups. Compound of formula (I) is administrated by oral (gavage) route. Two protocols are considered, where the treatment is initiated 24 hours before or 1 hour after the induction of acute glaucoma-induced I/R injury.
To induce I/R injury, a general anesthesia is induced via i.p. injection of a mixture of 50 mg/kg of ketamine and 2 mg/kg of xylazine. Corneal analgesia is administered using a drop of topical 0.5% proparacaine hydrochloride ophthalmic solution, and pupillary dilatation is maintained with 0.5% tropicamide and 0.5% phenylephrine. After analgesia and dilation of the pupil, the anterior chamber of the left eye is cannulated with a 30-gauge needle connected to a saline reservoir at 150 cm above the eye, leading to a high intraocular pressure (IOP) of 110 mm Hg. The presence of retinal ischemia is examined by the fundus. The cannulation is lasting 60 minutes. After removing the infusion needle from the anterior chamber, the IOP returns to normal. Antibiotic ophthalmic gel with tobramycin is topically applied to the eye before and after the procedure. The rats are sacrificed 7 days after I/R injury to observe the long-term effect of the compound of formula (I) treatment. After collection, the thickness of the retinas is examined by histological staining (Mayer P, (1896), Mitt. zool. Stn. Neapel., 12, 303). The number of retinal ganglion cells is also quantified by immunohistochemistry. Finally, the function of the retina is also evaluated 7 days after I/R injury by electroretinography (ERG).

With `CC(=O)Nc1nnc(N2CCN([C@@H](C)c3ccc4c(c3)OCO4)CC2)s1` [Compound (I)] the “behavioural tests (Irwin battery, rotarod, wire suspension, beam walk, pasta gnawing)” value [1] was “functional benefit (motor improvement)”, the “intraneuronal aggregated pser129-Asyn deposits by histology” value [1] was “reduction of the number of intraneuronal aggregated pser129-Asyn deposits” and the “efficacy, safety and tolerability of the preferred dosage regimen” value [2] was “especially effective, safe and well tolerated”. The “epileptic activity by EEG (number of seizures, seizure duration, interictal spike frequency)” value [3] was “reducing the epileptic activity”, the “number of retinal ganglion cells by immunohistochemistry” value [4] was “increase number of retinal ganglion cells” and the “retinal function by electroretinography” value [4] was “improving retinal function”. For the same compound, the “thickness of the retina by H&E staining” value [4] was “mitigating the reduction of thickness of the retina”.
